Measurements reported in patent US5637583A, “Aminocyclohexylesters and uses thereof” (University of British Columbia, priority 1994, dated 1997).
Structures can show the parent of a compound that is named as a salt. Where two headings read alike, the source gives them in different places.

How the values were obtained:
[1] = test system: conscious rats subject to coronary artery occlusion; assay: Antiarrhythmic efficacy: incidence of cardiac arrhythmias in conscious rats subject to coronary artery occlusion; type: in vivo, rat; conditions: score 0-9 per Table 2, 30 min after occlusion
Description: Antiarrhythmic efficacy was assessed by investigating the effect of a compound on the incidence of cardiac arrhythmias in conscious rats subject to coronary artery occlusion. Rats weighing 200-300 gms were subjected to preparative surgery and assigned to groups in a random block design. In each case, the animal was anesthetized with halothane during surgical preparation. The left femoral artery was cannulated for measurement of mean arterial blood pressure and withdrawal of blood samples. The left femoral vein was also cannulated for injection of drugs. The thoracic cavity was opened and a polyethylene occluder loosely placed around the left anterior descending coronary artery. The thoracic cavity was then closed. ECG was recorded by insertion of electrodes placed along the anatomical axis of the heart. All cannulae and electrode leads were exteriorized in the mid scapular region. In random and double-blind manner, about 0.5 to 2 hours post-surgery, an infusion of vehicle, or the compound to be tested was given. After 15 minutes infusion, the occluder was pulled so as to produce coronary artery occlusion. ECG, arrhythmias, blood pressure, heart rate and mortality were monitored for 30 minutes after occlusion. Arrhythmias were recorded as ventricular tachycardia (VT) and ventricular fibrillation (VF) and scored according to Curtis, M. J. and Walker, M. J. A., Cardiovasc.
VPB=ventricular premature beats
VT=ventricular tachycardia
VF=ventricular fibrillation
Occlusion is associated with increases in R-wave height and "S-T" segment elevation; and an occluded zone (measured after death by cardiogreen dye perfusion) in the range of 25%-50% of total left-ventricular weight.

potassium channels = assay: Electrical stimulation of left ventricle in rats (ERP; ancillary blockade of potassium channels); type: in vivo, rat; conditions: infusion rate for 25% increase from control; anesthetized rats
Description: Two silver stimulating electrodes were inserted through the chest wall and implanted in the left ventricle. Square wave stimulation was used to determine threshold current for capture, ventricular fibrillation threshold current, and effective refractory period (Howard, P. G. and Walker, M. J. A., Proc. West. Pharmacol. Soc. 33:123-127 (1990)). […] The threshold current for capture is represented by "iT". The fibrillation threshold current is represented by "VFT". The effective refracting period is represented by "ERP".

cardiac sodium channel [2] = biological target: T1, cardiac sodium channel (Rattus norvegicus, UniProt P15389); assay: ECG parameters in anesthetized rats (RSh, PR, QRS; cardiac sodium channel blockade); type: in vivo; conditions: i.v. bolus; for ED25 PR (dose required to produce a 25% increase): P-R interval; for ED25 QRS (dose required to produce a 25% increase): QRS interval
Description: Rats weighing 200-250 gms were used in this example. Animals were anesthetized with 60 mg/kg pentobarbitone i.p. The carotid artery and jugular vein were cannulated for measurement of blood pressure and drug injection, respectively. ECG was recorded by insertion of electrodes placed along the anatomical axis of the heart. All compounds were given as bolus injections.
Various ECG parameters were measured. The most sensitive of these for measuring sodium channel blockade is RSh (J. Pharmacology Methods 27:51-58 (1992)). Table 4 describes the results of the tests as ED25 (micromoles/kg) which are the doses required to produce a 25% increase in the parameter measured (ne=not estimated). The increases in P-R interval, QRS interval and RSh indicate cardiac sodium channel blockade while the increase in Q-T interval indicates ancillary cardiac potassium channel blockade which is the property of a type 1 a antiarrhythmic.

cardiac sodium channel [3] = biological target: T1, cardiac sodium channel; assay: Electrical stimulation of left ventricle in rats (iT, VFT; cardiac sodium channel blockade); type: in vivo; conditions: infusion rate for 25% increase from control; anesthetized rats
Description: Rats were prepared according to the preceding procedure. Two silver stimulating electrodes were inserted through the chest wall and implanted in the left ventricle. Square wave stimulation was used to determine threshold current for capture, ventricular fibrillation threshold current, and effective refractory period (Howard, P. G. and Walker, M. J. A., Proc. West. Pharmacol. Soc. 33:123-127 (1990)). Table 5 contains ED25 values for these indices of cardiac sodium channel blockade, where the ED25 is the infusion rate in micromoles/kg/minute of compound required to elicit a 25% increase from control. The increases in refractoriness indicate ancillary blockade of potassium channels. The threshold current for capture is represented by "iT". The fibrillation threshold current is represented by "VFT". The effective refracting period is represented by "ERP".

cardiac sodium channel [4] = biological target: T1, cardiac sodium channel; assay: Whole cell voltage clamp tests, single isolated adult rat cardiac cells; type: cell-based
Description: In order to directly measure cardiac sodium channel blockade, standard whole cell voltage clamp tests were carried out using single isolated adult rat cardiac cells. Results in the form of EC50 values, which are micromolar concentrations required to produce a 50% reduction in sodium current, are presented in Table 6.

[5] = test system: cardiac potassium channel; assay: ECG parameters in anesthetized rats (QT; ancillary cardiac potassium channel blockade); type: in vivo, rat; conditions: i.v. bolus, Q-T interval
Description: Various ECG parameters were measured. […] The increases in P-R interval, QRS interval and RSh indicate cardiac sodium channel blockade while the increase in Q-T interval indicates ancillary cardiac potassium channel blockade which is the property of a type 1 a antiarrhythmic.

[6] = test system: hypogastric nerve vas deferens; assay: Nerve conduction blockade in vitro, hypogastric nerve vas deferens; conditions: read-out: concentration at which the twitch response from electrical stimulation is reduced to 50% of control value
Description: In order to establish the potency of the compounds to block nerve conduction, two in vitro assays were used. The first was the phrenic nerve diaphragm of the rat. The second was the hypogastric nerve vas deferens. Nerve blockade in these preparations is indicative of local anesthetic activity. Compounds were administered to the bath solution in increasing concentrations while the preparations were being stimulated with regular electrical impulses.

phrenic nerve diaphragm = assay: Nerve conduction blockade in vitro, phrenic nerve diaphragm; conditions: Rattus norvegicus, read-out: concentration at which the twitch response from electrical stimulation is reduced to 50% of control value
Description: In order to establish the potency of the compounds to block nerve conduction, two in vitro assays were used. The first was the phrenic nerve diaphragm of the rat. […] Nerve blockade in these preparations is indicative of local anesthetic activity. Compounds were administered to the bath solution in increasing concentrations while the preparations were being stimulated with regular electrical impulses.

[7] = dose 8 micromoles/kg/min infusion
[8] = whole cell voltage clamp, isolated adult rat cardiac cells, read-out: EC50 (concentration required to produce a 50% reduction in sodium current)
[9] = dose 4 micromoles/kg/min infusion

T1 sequence (P15389 whole entry): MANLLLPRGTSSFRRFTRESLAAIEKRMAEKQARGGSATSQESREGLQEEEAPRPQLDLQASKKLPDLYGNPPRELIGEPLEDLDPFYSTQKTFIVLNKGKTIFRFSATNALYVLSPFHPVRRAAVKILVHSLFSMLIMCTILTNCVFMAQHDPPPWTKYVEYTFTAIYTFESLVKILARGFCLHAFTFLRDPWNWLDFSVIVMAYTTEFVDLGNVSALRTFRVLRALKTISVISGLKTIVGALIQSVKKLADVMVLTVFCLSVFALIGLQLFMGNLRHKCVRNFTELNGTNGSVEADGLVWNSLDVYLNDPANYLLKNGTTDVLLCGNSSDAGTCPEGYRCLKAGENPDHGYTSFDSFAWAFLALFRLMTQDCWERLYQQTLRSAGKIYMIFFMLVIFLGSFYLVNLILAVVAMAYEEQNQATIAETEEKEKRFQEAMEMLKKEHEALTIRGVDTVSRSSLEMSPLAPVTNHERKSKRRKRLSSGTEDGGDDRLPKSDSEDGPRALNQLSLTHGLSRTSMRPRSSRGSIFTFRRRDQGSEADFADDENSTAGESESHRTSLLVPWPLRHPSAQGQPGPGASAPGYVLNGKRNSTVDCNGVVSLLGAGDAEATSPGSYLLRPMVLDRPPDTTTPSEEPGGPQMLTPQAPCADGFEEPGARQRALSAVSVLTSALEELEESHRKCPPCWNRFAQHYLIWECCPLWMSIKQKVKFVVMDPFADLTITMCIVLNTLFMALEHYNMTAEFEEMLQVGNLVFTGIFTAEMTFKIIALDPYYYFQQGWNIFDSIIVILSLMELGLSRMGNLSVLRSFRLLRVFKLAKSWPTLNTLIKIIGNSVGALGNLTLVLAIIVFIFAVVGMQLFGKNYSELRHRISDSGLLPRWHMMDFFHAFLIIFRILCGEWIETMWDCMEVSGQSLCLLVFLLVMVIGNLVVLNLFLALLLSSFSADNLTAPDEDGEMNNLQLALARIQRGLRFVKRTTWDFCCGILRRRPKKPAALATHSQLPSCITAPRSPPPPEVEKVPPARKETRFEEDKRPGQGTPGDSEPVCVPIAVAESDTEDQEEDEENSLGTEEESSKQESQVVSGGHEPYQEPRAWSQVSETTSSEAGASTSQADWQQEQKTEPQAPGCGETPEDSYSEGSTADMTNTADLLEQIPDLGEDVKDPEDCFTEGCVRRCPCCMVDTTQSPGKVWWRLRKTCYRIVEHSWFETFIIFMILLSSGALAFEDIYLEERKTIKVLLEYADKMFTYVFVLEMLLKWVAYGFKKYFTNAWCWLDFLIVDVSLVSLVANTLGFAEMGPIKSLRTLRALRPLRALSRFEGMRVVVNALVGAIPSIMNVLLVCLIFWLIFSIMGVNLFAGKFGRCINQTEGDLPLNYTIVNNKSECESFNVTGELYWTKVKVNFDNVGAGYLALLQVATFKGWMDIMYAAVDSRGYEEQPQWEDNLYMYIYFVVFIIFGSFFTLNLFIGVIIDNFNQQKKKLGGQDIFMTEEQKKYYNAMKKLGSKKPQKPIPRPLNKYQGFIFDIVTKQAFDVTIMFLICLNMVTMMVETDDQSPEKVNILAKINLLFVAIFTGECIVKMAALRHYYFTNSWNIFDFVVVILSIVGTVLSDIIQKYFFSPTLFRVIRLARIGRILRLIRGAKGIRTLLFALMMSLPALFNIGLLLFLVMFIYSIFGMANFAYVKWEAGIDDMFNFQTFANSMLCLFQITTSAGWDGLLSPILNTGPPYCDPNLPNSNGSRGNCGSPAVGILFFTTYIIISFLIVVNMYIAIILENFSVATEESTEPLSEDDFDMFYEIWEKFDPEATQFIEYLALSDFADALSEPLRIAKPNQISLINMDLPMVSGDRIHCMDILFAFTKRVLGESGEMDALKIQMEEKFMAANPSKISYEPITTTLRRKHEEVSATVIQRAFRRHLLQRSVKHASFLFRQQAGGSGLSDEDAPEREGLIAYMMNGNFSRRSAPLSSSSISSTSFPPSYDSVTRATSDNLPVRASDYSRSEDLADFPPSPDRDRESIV

Row | Compound | AS (arrhythmia score) ([1]; dose 12 micromoles/kg/min infusion) | ED25 ERP (effective refractory period) (potassium channels) | ED25 PR (dose required to produce a 25% increase) (cardiac sodium channel [2]) | ED25 QRS (dose required to produce a 25% increase) (cardiac sodium channel [2]) | ED25 RSh (dose required to produce a 25% increase) (cardiac sodium channel [2]) | ED25 VFT (fibrillation threshold current) (cardiac sodium channel [3]) | ED25 iT (threshold current for capture) (cardiac sodium channel [3]) | AS (arrhythmia score) [1, 7] | EC50 (cardiac sodium channel [4]; [8]) | ED25 QT (dose required to produce a 25% increase) [5] | IC50 [6] | EC50 (cardiac sodium channel [4]) | IC50 (phrenic nerve diaphragm) | AS (arrhythmia score) ([1]; dose 5 micromoles/kg/min infusion) | AS (arrhythmia score) [1, 9] | AS (arrhythmia score) ([1]; dose 2 micromoles/kg/min infusion) | AS (arrhythmia score) ([1]; dose 10 micromoles/kg/min infusion)
1 | Cl.O=C(O[C@@H]1CCCC[C@H]1N1CCOCC1)c1cccc2ccccc12 (racemic) [Compound #15, (±)-trans-[2-(4-morpholinyl)cyclohexyl]-1-naphthoate monohydrochloride] | 2 | 20 µmol/kg/min | 340 µmol/kg | 90 µmol/kg | 80 µmol/kg | 18 µmol/kg/min | 33 µmol/kg/min | – | – | – | – | – | – | – | – | – | –
2 | Cl.O=C(Cc1cccc2sccc12)O[C@@H]1CCCC[C@H]1N1CCOCC1 (racemic) [Compound #16, (±)-trans-[2-(4-morpholinyl)cyclohexyl]benzo[b]thiophene-4-acetate monohydrochloride] | – | 5 µmol/kg/min | 230 µmol/kg | 690 µmol/kg | 23 µmol/kg | 2 µmol/kg/min | 15 µmol/kg/min | 0.3 | 225 µM | 33 µmol/kg | – | – | – | – | – | – | –
3 | O=C(COc1ccc(Cl)c(Cl)c1)O[C@@H]1CCCC[C@H]1N1CCCC1 (relative stereo) [Compound #1, (±)-trans-[2-(1-pyrrolidinyl)cyclohexyl](3,4-dichlorophenoxy)acetate monohydrochloride] | – | 4 µmol/kg/min | 17 µmol/kg | – | 10 µmol/kg | 3 µmol/kg/min | 6 µmol/kg/min | – | – | 78 µmol/kg | 40 µM | 200 µM | 90 µM | – | – | – | –
4 | O=C(COc1ccc(Cl)c(Cl)c1)O[C@@H]1CCCC[C@H]1N1CC2CCC(CC2)C1 (relative stereo) [Compound #3, (±)-trans-{2-[N-(3-azabicyclo[3.2.2]nonyl)]cyclohexyl}(3,4-dichlorophenoxy)acetate monohydrochloride] | – | – | 140 µmol/kg | 130 µmol/kg | 140 µmol/kg | – | – | – | – | 160 µmol/kg | 300 µM | > 150 µM | 200 µM | – | – | – | –
5 | O=C(COc1ccc(Cl)c(Cl)c1)O[C@@H]1CCCC[C@H]1N1CCOCC1 (relative stereo) [Compound #4, (±)-trans-[2-(4-morpholinyl)cyclohexyl](3,4-dichlorophenoxy)acetate monohydrochloride] | – | – | 44 µmol/kg | – | 10 µmol/kg | – | – | – | > 500 µM | – | – | – | – | 3.6 | – | – | –
6 | O=C(COc1ccc(Cl)c(Cl)c1)O[C@@H]1CCCC[C@H]1N1CCCCCC1 (relative stereo) [Compound #5, (±)-trans-[2-(1-hexahydroazepinyl)cyclohexyl](3,4-dichlorophenoxy)acetate monohydrochloride] | – | 4 µmol/kg/min | 43 µmol/kg | 66 µmol/kg | 36 µmol/kg | 4 µmol/kg/min | 5 µmol/kg/min | – | – | 45 µmol/kg | 100 µM | – | 180 µM | – | 3 | – | –
7 | O=C(CC1CCCCC1)O[C@@H]1CCCC[C@H]1N1CCCC1 (relative stereo) [Compound #7, (±)-trans-[2-(1-pyrrolidinyl)cyclohexyl](cyclohexyl)acetate monohydrochloride] | – | – | 84 µmol/kg | – | 6 µmol/kg | – | – | – | – | 41 µmol/kg | – | – | – | – | – | – | –
8 | O=C(Cc1cccc2ccccc12)O[C@@H]1CCCC[C@H]1N1CCOCC1 (relative stereo) [Compound #8, (±)-trans-[2-(4-morpholinyl)cyclohexyl]naphthyl-1-acetate monohydrochloride] | – | 4 µmol/kg/min | 20 µmol/kg | 42 µmol/kg | 11 µmol/kg | 2 µmol/kg/min | 5 µmol/kg/min | – | 80 µM | 57 µmol/kg | – | – | – | – | – | 3 | –
9 | O=C(Cc1ccc2ccccc2c1)O[C@@H]1CCCC[C@H]1N1CCOCC1 (relative stereo) [Compound #9, (±)-trans-[2-(4-morpholinyl)cyclohexyl]naphthyl-2-acetate monohydrochloride] | – | 8 µmol/kg/min | – | – | 13 µmol/kg | 7 µmol/kg/min | 34 µmol/kg/min | – | > 100 µM | 20 µmol/kg | – | – | – | – | 1.3 | – | –
10 | O=C(Cc1ccccc1)O[C@@H]1CCCC[C@H]1N1CCOCC1 (relative stereo) [Compound #10, (±)-trans-[2-(4-morpholinyl)cyclohexyl]phenylacetate monohydrochloride] | – | 8 µmol/kg/min | – | – | 16 µmol/kg | 1 µmol/kg/min | 15 µmol/kg/min | – | – | 25 µmol/kg | – | > 300 µM | – | – | – | – | 2.2
11 | O=C(Cc1ccc([N+](=O)[O-])cc1)O[C@@H]1CCCC[C@H]1N1CCOCC1 (relative stereo) [Compound #12, (+5-trans-[2-(4-morpholinyl)cyclohexyl](4-nitrophenyl)acetatemonohydrochloride] | – | 6 µmol/kg/min | 64 µmol/kg | 82 µmol/kg | 17 µmol/kg | 5 µmol/kg/min | 4 µmol/kg/min | 3 | > 300 µM | 44 µmol/kg | – | – | – | – | – | – | –
